Experimental findings from patent EP0759299B1, “Potentiation of serotonin response” (ELI LILLY AND COMPANY, priority 1995, dated 1997) are described below.

What all share (assay type): in vivo, Sprague-Dawley rats
In test [1] the test system is DA. Nature of the test: Microdialysis assay of monoamines in hypothalamus of conscious rats: DA. Conditions: percent of baseline, pindolol s.c. infusion 50 mg/kg/hr from 120 min, single animal. The method, then: (§1) A David Kopf stereotaxic instrument was used to implant the probe unilaterally in the hypothalamus at coordinates rostral -1.5 mm, lateral -1.3 mm, and ventral -9.0 mm (Paxinos and Watson, 1986). After a 48 hour recovery period, rats were placed in a large plastic bowl with a mounted liquid swivel system (CMA/120 system for freely moving animals, Bioanalytical Systems, West Lafayette, IN). Filtered artificial cerebrospinal fluid (CSF) (150 mM NaCl, 3.0 mM KCl, 1.7 mM CaCl2, and 0.9 mM MgCl2) was perfused through the probe at a rate of […]. The output dialysate line was fitted to a tenport HPLC valve with a 20 µl loop. At the end of each 30 minute sampling period, dialysate collected in the loop was injected on an analytical column (Spherisorb 3 µ ODS2, 2X150 mm, Keystone Scientific).
(§2) The method used to measure monoamines was as described by Perry and Fuller (1992). Briefly, dialysate collected in the 20 µl loop was assayed for 5-HT, NE and DA. The 20 µl injection went onto the column with a mobile phase which resolved NE, DA, and 5-HT: 75 mM potassium acetate, 0.5 mM ethylenediaminetetraacetic acid, 1.4 mM sodium octanesulfonic acid and 8% methanol, pH 4.9. The mobile phase for the amine column was delivered with a flow programmable pump at an initial flow rate of 0.2 ml/min increasing to 0.3 ml/min at 5 min then decreasing back to 0.2 ml/min at 26 min with a total run time of 30 min. Flow programming was used to elute the 5-HT within a 25 min time period. The electrochemical detector (EG&G, Model 400) for the amine column was set at a potential of 400 mV and a sensitivity of 0.2 nA/V. The data was collected and analyzed with a Hewlett-Packard HP1000 chromatography system which measured peak heights and calculated sample concentrations. Basal levels were measured for at least 90 minutes prior to drug administration.
(§3) Extracellular levels of the amines in microdialysates were calculated by comparing peak heights with those of 50 pmole standards. The mean value of the four samples immediately preceding drug administration served as the basal level for each experiment and data was converted to percent of basal. Paired t-tests were used to compare the mean of the basal values from the time point immediately preceding drug administration to those of each time point thereafter.

Test [2] has as its system NE. Nature of the test: Microdialysis assay of monoamines in hypothalamus of conscious rats: NE. Conditions: percent of baseline, pindolol s.c. infusion 50 mg/kg/hr from 120 min, single animal. The method, then:
as §1, §2
Extracellular levels of the amines in microdialysates were calculated by comparing peak heights with those of 50 pmole standards. […]

Test [3] concerns 5-HT. Kind of test: Microdialysis assay of monoamines in hypothalamus of conscious rats: 5-HT. Conditions: L-tryptophan 100 mg/kg i.p. at 150 min, single animal. The method, then: as §1, §2, §3

Regarding `CC(C)NCC(O)COc1cccc2[nH]ccc12` (racemic) [pindolol, 4-(2-hydroxy-3-isopropylaminopropoxy)-indole], the “DA (%)” value was found to be 87.2% in test [1] (Test 2, 150 min); 73.2% in test [1] (Test 2, 180 min); 70.3% in test [1] (Test 2, 210 min); 68.5% in test [1] (Test 2, 240 min). Further, the “NE (%)” value is given as 221.5% in test [2] (Test 2, 150 min); 232.5% in test [2] (Test 2, 210 min); 261.9% in test [2] (Test 2, 240 min).

For `N[C@@H](Cc1c[nH]c2ccccc12)C(=O)O` [L-tryptophan], the 5-HT is given as 88.5% of basal in test [3] (Test 1, 180 min); 83.6% of basal in test [3] (Test 1, 210 min); 76.3% of basal in test [3] (Test 1, 240 min); 73.9% of basal in test [3] (Test 1, 270 min).
